Experimental data from paper PMC11434868, “Synthesis and Antiproliferative Effect of 3,4,5-Trimethoxylated Chalcones on Colorectal and Prostatic Cancer Cells” (Pharmaceuticals, 2024).
Read-outs that look alike come from different tables or passages of the source.

How the values were obtained:
HCT116 [1] = assay: MTT assay, antiproliferative effect on HCT116; assay type: cell-based; settings: Homo sapiens
Experimental: (§1) Human CRC (HCT116 and HT-29) and PCa (DU145 and PC3) cell lines were purchased from the American Type Culture Collection (ATCC—LGC Standards, Molsheim, France). All cells were grown in RPMI 1640 medium supplemented with 10% FBS, 1% L-glutamine, 100 U/mL penicillin, and 100 μg/mL streptomycin. Cultures were maintained in a humidified atmosphere containing 5% CO2 at 37 °C. Cells were seeded in 75 cm^2 culture flasks at 1.2 × 10^4 cells/cm^2 for HCT116, DU145, and PC3 cells, and 2.0 × 10^4 for HT-29 cells. Cells were grown for 24 h in culture medium prior to exposure or not to obtain the synthesized compounds. Stock solutions (10^−2 M in DMSO) of each compound were diluted in culture medium to obtain appropriate final concentrations.
(§2) • (a) MTT assay: The antiproliferative effect of all compounds was determined using MTT assay (a metabolic activity test). Briefly, cells were seeded in 96-well culture plates at 4 × 10^3 cells/well for HCT116, PC3, and DU145 cells and 6 × 10^3 cells/well for HT-29 cells (100 µL/well), and grown for 24 h in culture medium prior to exposure or not to obtain compounds 1–15 with concentrations ranging from 5 nM to 50 μM. After 24 and 48 h of treatment, MTT (5 mg/mL in PBS) was added and incubated for another 3 h. MTT was then removed from the wells before adding 100 μL/well of DMSO. The optical density was detected with a microplate reader (Multiskan FC, Thermoscientific, Bordeaux, France) at 550 nm and cell viability was expressed as a percentage of each treatment condition compared to control cells. IC50 values were calculated for all compounds from the dose–response curve. Data are expressed as the arithmetic means ± standard error of the mean (SEM) of separate experiments. All experiments were performed at least in triplicate. • (b) Trypan blue dye exclusion method: Cells were grown for 24 h then treated with compounds 10 and 13 at indicated concentrations. After 48 h of treatment, cells were trypsinized and resuspended in complete medium. Each sample was mixed with Trypan blue solution (0.14% in HBSS, Invitrogen-GIBCO, ThermoFisher, Illkirch, France). Colored (non-viable) and dye-excluding (viable) cells were counted with the LUNA-II automated cell Counter (Logos Biosystems; MC2, Aubière, France). The control was normalized to 100% including viable and dead cells. The results indicated on the histograms were expressed as the percentage of cells compared to the control. IC50 values were determined from the percentages of viable cells compared to the control.

HT-29 [2] = assay: MTT assay, antiproliferative effect on HT-29; assay type: cell-based, human; settings: Homo sapiens
Experimental: as §1, §2

DU145 [3] = assay: MTT assay, antiproliferative effect on DU145; assay type: cell-based; settings: Homo sapiens
Experimental: as §1, §2

PC3 [4] = assay: MTT assay, antiproliferative effect on PC3; assay type: cell-based; settings: Homo sapiens
Experimental: as §1, §2

HCT116 [5] = assay: Trypan blue dye exclusion method on HCT116; assay type: cell-based, human
Experimental: as §1, §2

HT-29 [6] = assay: Trypan blue dye exclusion method on HT-29; assay type: cell-based, human
Experimental: as §1, §2

DU145 [7] = assay: Trypan blue dye exclusion method on DU145; assay type: cell-based, human
Experimental: as §1, §2

PC3 [8] = assay: Trypan blue dye exclusion method on PC3; assay type: cell-based, human
Experimental: as §1, §2

[9] = test system: caspase-3 and PARP in HCT116 cells; assay: Western blot of apoptosis-related proteins in HCT116; assay type: cell-based, human; settings: HCT116, 48 h;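 also: compared with untreated control cells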
Experimental: (§3) For total protein extraction, collected samples of each condition were washed in PBS. Then, the total cell pool was centrifuged at 200 g for 5 min at 4 °C and homogenized in RIPA lysis buffer (50 mM HEPES, pH 7.5, 150 mM NaCl, 1% sodium deoxycholate, 1% NP-40, 0.1% SDS, […] of aprotinin) containing protease inhibitors according to the manufacturer’s instructions. After quantification of protein levels using the Bradford method, proteins ([…]) were separated on 12.5% SDS-PAGE gels and transferred to PVDF membranes (GE Healthcare Life Science—Fisher Scientific). Membranes were probed with respective antibodies against human caspase-3, cleaved caspase-3, and PARP according to the manufacturer’s instructions. After incubation with appropriate secondary antibodies, blots were developed using the “ImmobilonWestern” substrate, following the manufacturer’s protocol, and G:BOX system (Syngene, Cambridge, UK). Membranes were then reblotted with human anti-β-actin used as a loading control.

[10] = test system: caspase-3 and PARP in DU145 cells; assay: Western blot of apoptosis-related proteins in DU145; assay type: cell-based, human; settings: DU145, 48 h;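 also: compared with untreated control cells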
Experimental: as §3

[11] = test system: caspase-3 and PARP in PC3 cells; assay: Western blot of apoptosis-related proteins in PC3; assay type: cell-based, human; settings: PC3, 48 h;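 also: compared with untreated control cells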
Experimental: as §3

[12] = test system: human CRC (HCT116 and HT-29) and human PCa (DU145 and PC3) cell lines; assay: MTT assay, summary statements over the cell lines; assay type: cell-based; settings: 48 h, read-out: IC50 towards the selected cell lines
Experimental: as §1, §2

COc1cc(C(=O)/C=C/c2c[nH]c3ccccc23)cc(OC)c1OC [chalcone 10, (E)-3-(1H-indol-3-yl)-1-(3,4,5-trimethoxyphenyl)prop-2-en-1-one]
IC50 (HCT116 [1]; HCT-116, 24 h, read-out: IC50 HCT116 24 h): 282 ± 12 nM
IC50 (HCT116 [1]; HCT-116, 48 h, read-out: IC50 HCT116 48 h): 39 ± 1 nM
IC50 (HT-29 [2]; HT-29, 24 h, 24 h, read-out: IC50 HT-29 24 h): 41 ± 1 nM
IC50 (HT-29 [2]; HT-29, 48 h, 48 h, read-out: IC50 HT-29 48 h): 28 ± 1 nM
IC50 (DU145 [3]; DU-145, 24 h, read-out: IC50 DU145 24 h): 51 ± 6 nM
IC50 (DU145 [3]; DU-145, 48 h, read-out: IC50 DU145 48 h): 20 ± 2 nM
IC50 (PC3 [4]; PC-3, 24 h, read-out: IC50 PC3 24 h): 44 ± 6 nM
IC50 (PC3 [4]; PC-3, 48 h, read-out: IC50 PC3 48 h): 17 ± 5 nM
Dead cells (HCT116 [5]; HCT116, 48 h, 0.050 µM): 6.76%
Dead cells (HCT116 [5]; HCT116, 48 h, 0.100 µM): 0.85%
IC50 (HCT116 [5]; Homo sapiens, HCT-116, 48 h, from percentages of viable cells, read-out: IC50 Trypan Blue Test HCT116): 43 nM
viability at 0.01 µM (HCT116 [5]; Homo sapiens, HCT-116, HCT116, 48 h, 0.010 µM, percentage of cells compared to control, read-out: Viable cells): 97.7%
viability at 0.05 µM (HCT116 [5]; Homo sapiens, HCT-116, HCT116, 48 h, 0.050 µM, read-out: Viable cells): 43.2%
viability at 0.1 µM (HCT116 [5]; Homo sapiens, HCT-116, HCT116, 48 h, 0.100 µM, read-out: Viable cells): 17.4%
Dead cells (HT-29 [6]; HT-29, 48 h, 0.010 µM): 3.78%
Dead cells (HT-29 [6]; HT-29, 48 h, 0.050 µM): 3.36%
Dead cells (HT-29 [6]; HT-29, 48 h, 0.100 µM): 1.68%
IC50 (HT-29 [6]; Homo sapiens, HT-29, 48 h, from percentages of viable cells, read-out: IC50 Trypan Blue Test HT-29): 21 nM
viability at 0.01 µM (HT-29 [6]; Homo sapiens, HT-29, 48 h, 0.010 µM, read-out: Viable cells): 76.2%
viability at 0.05 µM (HT-29 [6]; Homo sapiens, HT-29, 48 h, 0.050 µM, read-out: Viable cells): 15.9%
viability at 0.1 µM (HT-29 [6]; Homo sapiens, HT-29, 48 h, 0.100 µM, read-out: Viable cells): 10.7%
Dead cells (DU145 [7]; DU145, 48 h, 0.010 µM): 2.21%
Dead cells (DU145 [7]; DU145, 48 h, 0.050 µM): 3.40%
Dead cells (DU145 [7]; DU145, 48 h, 0.100 µM): 5.30%
IC50 (DU145 [7]; Homo sapiens, DU-145, 48 h, from percentages of viable cells, read-out: IC50 Trypan Blue Test DU145): 40 nM
viability at 0.01 µM (DU145 [7]; Homo sapiens, DU-145, DU145, 48 h, 0.010 µM, read-out: Viable cells): 88.9%
viability at 0.05 µM (DU145 [7]; Homo sapiens, DU-145, DU145, 48 h, 0.050 µM, read-out: Viable cells): 40.6%
viability at 0.1 µM (DU145 [7]; Homo sapiens, DU-145, DU145, 48 h, 0.100 µM, read-out: Viable cells): 18.4%
IC50 (PC3 [8]; Homo sapiens, PC-3, 48 h, from percentages of viable cells, read-out: IC50 Trypan Blue Test PC3): 32 nM
viability at 0.01 µM (PC3 [8]; Homo sapiens, PC-3, PC3, 48 h, 0.010 µM, read-out: Viable cells): 91.9%
viability at 0.05 µM (PC3 [8]; Homo sapiens, PC-3, PC3, 48 h, 0.050 µM, read-out: Viable cells): 31.3%
viability at 0.1 µM (PC3 [8]; Homo sapiens, PC-3, PC3, 48 h, 0.100 µM, read-out: Viable cells): 16.5%
Dead cells (PC3 [8]; PC3, 48 h, 0.010 µM): 9.33%
Dead cells (PC3 [8]; PC3, 48 h, 0.100 µM): 4.44%
PARP cleavage (89 kDa fragment) [9]: induced PARP cleavage
cleaved caspase-3 [9]: clearly observed
native PARP expression [9]: strong decreased expression
pro-caspase-3 expression [9]: decreased
PARP cleavage (89 kDa fragment) [10]: induced PARP cleavage
cleaved caspase-3 [10]: clearly observed
native PARP expression [10]: strong decreased expression
pro-caspase-3 expression [10]: decrease was less marked
PARP cleavage (89 kDa fragment) [11]: induced PARP cleavage
cleaved caspase-3 [11]: clearly observed
native PARP expression [11]: strong decreased expression
pro-caspase-3 expression [11]: decreased
IC50 [12]: < 40 nM
IC50 ([12]; Homo sapiens): < 50 nM
